According to patent US8227408B2, “Leptin as an anti-amyloidogenic biologic and methods for delaying the onset and reducing Alzheimer's disease-like pathology” (Neurotez, Inc., priority 2005, dated 2012):

Experiments:
[1] = tested on: Neuro2a cells stably transfected with hyg-sa134 (SEAP-APP); assay: Aβ production by Neuro2a cells stably transfected with hyg-sa134 (total Aβ in media, sandwich ELISA); assay type: cell-based, mouse; conditions: for Aβ production / levels of Aβ in the media (in words): 2 or 5 h treatment; for Neuro2a/SEAP-APP Aβ(% control): total Aβ in conditioned media, concentration (TOFA 200 μM, cerulenin 200 μM, etomoxir 40 μM, peptide YY (3-36) 25 μM, CNTF 25 μM, leptin 400 ng/ml), mean ± SEM, 4 experiments, NS = non-significant; for Neuro2a/SEAP-APP Aβ(% control) / Aβ production (in words): 5 h
Protocol: (§1) Neuro2a (mouse neuroblastoma) stably transfected with hyg-sa134, a pcDNA3.1/Hygro plasmid (Invitrogen, CA) modified to express a fusion protein of secreted alkaline phosphatase (SEAP) and a fragment of APP consisting of the C-terminal 134 amino acids (“CAPP134”) (SEQ ID NO:10) were maintained in culture as described ([…]) in the presence of 400 μg/ml of hygromycin. SEQ ID NO: 11 is the DNA sequence of the entire hygsa134 vector, which was derived from the pcDNA3.1/Hygro vector by genetic manipulation to insert the DNA sequences for SEAP and CAPP134. The SEAP-CAPP cDNA insert from hyg-sa134 was also subcloned into an adenoviral vector using the Adeno Vator system (Qbiogene, Calif.). The DNA sequence for SEAP (corresponding to nucleotides 981-2441 of hyg-sa134) (SEQ ID NO: 9) is located 5′ to the DNA sequence (SEQ ID NO: 12) coding for CAPP134 (SEQ ID NO: 10).
(§2) SY5Y and hyg-sa134-Neuro2a cells were treated at 80% confluency (see below). Primary neural cultures from mouse embryos were allowed to grow for 6-12 days following plating and prior to viral infection and treatments.
About 5 μg/ml or about 10 μg/ml water-soluble cholesterol was added to cultures for 2 or 5 hours. Water soluble cholesterol (Sigma-Aldrich, MO) is a solution made of cholesterol balanced with cyclodextrin CDX (40 mg cholesterol per gr CDX). For comparison, cultures were treated with the equivalent amount of the resin alone, which leads to depletion of cholesterol in the cultures (Simons et al., Proc Natl Acad Sci USA. 95:6460-4 (1998)).
(§3) About 100 ng/ml or about 400 ng/ml leptin (Harbor-UCLA, CA), was added in cell culture medium for 2 or 5 h. Cells were approximately 80% confluent at the time of treatment. Peptide YY (3-36) (Phoenix Pharmaceuticals, Inc., CA), and CNTF (Sigma-Aldrich, Mo.) were added at about 25 μM or 150 μM for the same incubation periods. TOFA, etomoxir (Research Biochemicals International, MA) and cerulenin (Sigma-Aldrich, Mo.) were used as described below.
(§4) For the determination of Aβ peptide several methodologies also were used. SY5Y cells in culture were metabolically labeled with ^35S-[Met] as described (Figueiredo-Pereira et al. J Neurochem. 72:1417-22 (1999)), followed by immunoprecipitation, resolution of the immunoprecipitates on SDS-PAGE, autoradiography, and densitometric analysis of the autoradiogram. Neuro2a cells were stably transfected with hyg-sa134 (K. Sambamurti, S. Carolina Medical Center, SC) and Aβ40 (SEQ ID NO: 4) plus Aβ42 (SEQ ID NO: 5) plus Aβ43 (SEQ ID NO: 6) (Total Aβ) in the medium then was quantified by sandwich ELISAs developed with 4G8 and 6 ε10 monoclonal antibodies (Signet, Mass.) as described (Figueiredo-Pereira et al., J Neurochem. 72:1417-22 (1999)). Commercially available ELISA kits (KMI Diagnostics, MN) were used for the separate determination of Aβ40 (SEQ ID NO:4) and Aβ42/43 (SEQ ID NO:5/SEQ ID NO:6) in formic acid extracts of mice brains. Flotillin was detected using monoclonal anti-flotillin-1 antibodies (BD Biosciences, CA). Actin was detected using monoclonal anti-actin antibodies (Research Diagnostics, Inc, NJ).
Human (SYSY) or mouse neuroblastoma cell-lines (Neuro2a) commonly are used to study amyloid β metabolism in vitro. Neuro2a cells are stably transfected with hyg-sa134 (SEQ ID NO: 11), a plasmid driving the expression of a recombinant fusion protein containing the human C-terminal fragment of APP of about 134 amino acids, CAPP134 (SEQ ID NO: 10). Here, 5Y5Y or Neuro2a cultures were treated for 2 or 5 h with about 100 ng/ml or about 400 ng/ml leptin (FIG. 4a, 4b). Similarly, primary neurons from embryonic rat brain, infected with an adenovirus to direct the expression of CAPP134 (SEQ ID NO:10) also were treated according to the same regimen. […]

SY5Y cells [2] = assay: Aβ production by SY5Y cells; assay type: cell-based, human; conditions: total Aβ in conditioned media, 5 h; concentration (TOFA 200 μM, cerulenin 200 μM, etomoxir 40 μM, peptide YY (3-36) 25 μM, CNTF 25 μM, leptin 400 ng/ml); mean ± SEM; NS = non-significant
Text: (§5) Cell cultures, Treatments, Antibodies and Immunoassays. SY5Y cells (human neuroblastoma) were maintained in culture as described (Johnsingh et al., FEBS Lett. 465:53-8 (2000)). Primary neural cultures were obtained from ε16 rat embryonic cortex, as described (Shimoda et al., 1992. Brain Res. 586:319-31 (1992)). These were either grown as mixed cultures (Johnsingh et al., FEBS Lett. 465:53-8 (2000)) or grown under conditions that favor the isolation and proliferation of astrocytes (Takeshima et al., J Neurosci. 14:4769-79 (1994)).
as §2, §3, §4
(§6) Human (SYSY) or mouse neuroblastoma cell-lines (Neuro2a) commonly are used to study amyloid β metabolism in vitro. Neuro2a cells are stably transfected with hyg-sa134 (SEQ ID NO: 11), a plasmid driving the expression of a recombinant fusion protein containing the human C-terminal fragment of APP of about 134 amino acids, CAPP134 (SEQ ID NO: 10). Here, 5Y5Y or Neuro2a cultures were treated for 2 or 5 h with about 100 ng/ml or about 400 ng/ml leptin (FIG. 4a, 4b). Similarly, primary neurons from embryonic rat brain, infected with an adenovirus to direct the expression of CAPP134 (SEQ ID NO:10) also were treated according to the same regimen.

[3] = tested on: primary embryonic rat neurons infected with adenovirus; assay: Aβ production by primary embryonic rat neurons infected with adenovirus (SEAP-APP); assay type: cell-based; conditions: total Aβ in conditioned media, 5 h; concentration (TOFA 200 μM, cerulenin 200 μM, etomoxir 40 μM, peptide YY (3-36) 25 μM, CNTF 25 μM, leptin 400 ng/ml); mean ± SEM; NS = non-significant
Text: as §5, §1, §2, §6

SY5Y cells [4] = assay: 125I-Aβ uptake by SY5Y cells (apoE-dependent); assay type: cell-based, human; conditions: RAP 1 μM added together with Aβ or the Aβ/apoE complex
Protocol: Preparation of ApoE and binding with ^125I-Aβ. ApoE was isolated from the conditioned media of human embryonic kidney (HEK-293) cells stably-transfected with human apoE (having the ε3 allele or the ε4 allele) cDNA (Tezapsidis et al., FASEB J. 17:1322-1324 (2003)). These preparations, while usually poor in lipid, are fully functional for uptake experiments. ApoE then was pre-incubated with ^125I-Aβ overnight at 37° C. (Aβ/ApoE: 1/50 w/w) as described (Tezapsidis et al., FASEB J. 17:1322-1324 (2003)).
Aβ-uptake by SY5Y cells. Human ^125I-Aβ (iodinated at Tyr-10, Amersham Biosciences, IM 294) uptake was measured following addition of 0.1 nM ^125I-Aβ40 (SEQ ID NO: 4) to confluent SY5Y cells (60,000 cpm/ml) in the presence or absence of 100 ng/ml or 400 ng/ml leptin also included in a 24 h pre-incubation period. ^125I-Aβ was either added alone or was previously incubated with apoε3. In controls, Receptor Associated Protein (“RAP”, 1 μM) was added together with Aβ or the Aβ/apoE complex. RAP is an antagonist of a number of lipoprotein receptors (LaDu et al., Neurochem Int. 39:427-34 (2001)). After 24 h, the media were collected and subjected to scintillation counting for γ-Iradiation (Kang et al., 2000. J Clin Invest. 106:1159-66 (2000)). The amount of radioactivity was measured in both the trichloroacetic acid (10%) TCA pellets (representing intact Aβ) and the corresponding supernatants (representing degraded Aβ). 96.5±8.2% (mean±s.e.m., n=4 experiments, triplicate determinations) of the radioactivity found in the medium could be recovered in the TCA pellet and represented intact or oligomeric Aβ (not shown), when Aβ was pre-incubated with apoE.
The amount of TCA-precipitable radioactivity in the soluble fraction of cell lysates was compared to that in the total lysates, the ratio of which was typically about 0.8 to about 0.9 (not shown), to further verify that radioactivity was reduced in the media as a reflection of Aβ uptake by the cells, rather than due to non-specific binding to the extracellular surface of membranes or oligomerization/aggregation of Aβ.
In panel (a), Aβ uptake was measured in SY5Y cells following their treatment at 0 ng/ml, 100 ng/ml or 400 ng/ml leptin. Uptake also was measured in cells previously transfected with antisense DNA for PS1 as described (Tezapsidis et al., FASEB J. 17:1322-1324(2003)) (black). Uptake is expressed as the percentage of that observed with Aβ pre-incubated with apoε3 (medium gray) in the absence of leptin (first set of columns). […] Leptin induced a dose-dependent increase in Aβ uptake with a preference for apoε3 (medium gray) over apoε4 (light gray). In panel (b), SY5Y cells were pre-treated with […] cholesterol (+Chol) or normal medium (−Chol). Then Aβ uptake was measured following its preincubation with apoε3 (ε3) or apoε4 (ε4) in the absence (black) or the presence (gray) of about 400 ng/ml leptin. Cells were more resistant to taking-up Aβ when loaded with cholesterol. […] In panel (c), SY5Y cells were transiently transfected with SREBP-1 or SREBP-2 cDNA or an empty vector (Control). Then Aβ was measured in the medium by ELISAs (Figueiredo-Pereira et al., J Neurochem. 72:1417-22 (1999)) following treatment with (+) or without (−) leptin. […] In panel (d), Aβ uptake was measured in SY5Y cells prepared as in panel (c). Uptake was performed using Aβ/apoε3 complexes.

[5] = 25 μM (equimolar concentrations), Table 1 cells
[6] = higher (150 μM) concentrations, not shown

Molecule | Aβ production / levels of Aβ in the media (in words) [1] | Neuro2a/SEAP-APP Aβ(% control) [1] | SY5Y Aβ (% control) (SY5Y cells [2]) | Neurons/SEAPP-APP Aβ (% control) [3] | Aβ production (in words) [1, 5] | Aβ production (in words) [1, 6] | Aβ uptake (SY5Y cells [4])
C/C=C/C/C=C/CCC(=O)[C@H]1O[C@H]1C(N)=O [Cerulenin, cerulenin] | mimicked | 52 ± 12 % control | 65 ± 9, NS % control | 66 ± 5 % control | – | – | –
CCOC(=O)[C@@]1(CCCCCCOc2ccc(Cl)cc2)CO1 [Etomoxir] | increased Aβ production | 154 ± 14 % control | 142 ± 14 % control | 158 ± 14 % control | – | – | –
CCCCCCCCCCCCCCOc1ccc(C(=O)O)o1 [TOFA, 5-(tetradecyloxy)-2-furancarboxylic acid] | mimicked | 40 ± 15 % control | 58 ± 12 % control | 35 ± 4 % control | – | – | –
Peptide YY (3-36): gut-derived hormone affecting daily food intake | – | 92 ± 9, NS % control | 96 ± 7, NS % control | 98 ± 5, NS % control | neither peptide changed Aβ production in a statistically significant way | neither peptide changed Aβ production in a statistically significant way | –
methyl-β-cyclodextrin | lowering Aβ | – | – | – | – | – | –
Ciliary neurotrophic factor: member of the gp130 family of cytokines regulating survival and differentiation of neurons (protein, UniProt P26441 1-200, looked up) Ciliary neurotrophic factor: MAFTEHSPLTPHRRDLCSRSIWLARKIRSDLTALTESYVKHQGLNKNINLDSADGMPVASTDQWSELTEAERLQENLQAYRTFHVLLARLLEDQQVHFTPTEGDFHQAIHTLLLQVAAFAYQIEELMILLEYKIPRNEADGMPINVGDGGLFEKKLWGLKVLQELSQWTVRSIHDLRFISSHQTGIPARGSHYIANNKKM | – | 95 ± 4, NS % control | 96 ± 8, NS % control | 89 ± 12, NS % control | neither peptide changed Aβ production in a statistically significant way | neither peptide changed Aβ production in a statistically significant way | –
RAP: Receptor Associated Protein, antagonist of a number of lipoprotein receptors (protein) YSREKNQPKPSPKRESGEEFRMEKLNQLWEKAQRLHLPPVRLAELHADLKIQERDELAWKKLKLDGLDEDGEKEARLIRNLNVILAKYGLDGKKDARQVTSNSLSGTQEDGLDDPRLEKLWHKAKTSGKFSGEELDKLWREFLHHKEKVHEYNVLLETLSRTEEIHENVISPSDLSDIKGSVLHSRHTELKEKLRSINQGLDRLRRVSHQGYSTEAEFEEPRVIDLWDLAQSANLTDKELEAFREELKHFEAKIEKHNHYQKQLEIAHEKLRHAESVGDGERVSRSREKHALLEGRTKELGYTVKKHLQDLSGRISRARHNEL | – | – | – | – | – | – | abolished uptake
